The source of these data is patent US8598202B2, “Aryl-hydroxyethylamino-pyrimidines and triazines as modulators of fatty acid amide hydrolase” (Janssen Pharmaceutica NV, priority 2008, dated 2013).

Counter-ions that a name gives are not always drawn. A value given as a limit tells only on which side of the number the result lay.

The target of one test is T1, FAAH (Homo sapiens, UniProt O00519).
T1 sequence (O00519 1-579): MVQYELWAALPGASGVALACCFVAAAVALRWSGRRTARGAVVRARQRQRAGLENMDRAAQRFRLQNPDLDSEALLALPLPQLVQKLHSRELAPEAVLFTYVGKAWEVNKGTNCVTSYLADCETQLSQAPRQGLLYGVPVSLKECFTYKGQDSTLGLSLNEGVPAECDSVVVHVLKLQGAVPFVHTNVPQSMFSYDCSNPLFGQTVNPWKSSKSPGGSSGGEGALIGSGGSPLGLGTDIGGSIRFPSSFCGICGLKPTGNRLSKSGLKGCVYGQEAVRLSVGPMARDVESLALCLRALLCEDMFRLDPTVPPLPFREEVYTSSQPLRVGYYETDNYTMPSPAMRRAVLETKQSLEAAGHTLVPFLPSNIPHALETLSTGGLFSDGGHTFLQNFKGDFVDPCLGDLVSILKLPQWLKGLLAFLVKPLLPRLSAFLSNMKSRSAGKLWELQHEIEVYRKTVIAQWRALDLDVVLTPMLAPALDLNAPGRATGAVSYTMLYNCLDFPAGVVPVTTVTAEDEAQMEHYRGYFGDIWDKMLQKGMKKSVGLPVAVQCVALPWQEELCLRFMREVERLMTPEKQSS
The experiment in a line: Assay Method 1: FAAH assay, 3H-anandamide hydrolysis in homogenate of T84 cells or SK-N-MC cells transfected with human FAAH.

Another test addresses T2, Rat FAAH-1 (Rattus norvegicus, UniProt P97612).
T2 sequence (P97612 1-579): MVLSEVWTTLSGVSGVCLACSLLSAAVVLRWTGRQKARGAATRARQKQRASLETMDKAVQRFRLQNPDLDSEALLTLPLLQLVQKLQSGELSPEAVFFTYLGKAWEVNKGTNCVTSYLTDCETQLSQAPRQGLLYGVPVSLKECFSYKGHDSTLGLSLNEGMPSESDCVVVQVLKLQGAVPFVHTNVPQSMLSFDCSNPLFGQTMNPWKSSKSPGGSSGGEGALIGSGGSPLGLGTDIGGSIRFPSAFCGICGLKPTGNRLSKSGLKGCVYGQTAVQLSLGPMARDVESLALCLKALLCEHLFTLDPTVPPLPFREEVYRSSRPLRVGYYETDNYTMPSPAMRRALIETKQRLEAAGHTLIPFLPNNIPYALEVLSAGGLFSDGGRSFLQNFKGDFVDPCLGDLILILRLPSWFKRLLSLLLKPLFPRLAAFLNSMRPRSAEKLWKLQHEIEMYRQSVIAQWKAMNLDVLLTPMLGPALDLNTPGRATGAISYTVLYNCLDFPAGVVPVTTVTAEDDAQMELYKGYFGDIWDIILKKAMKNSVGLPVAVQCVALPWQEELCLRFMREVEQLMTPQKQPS
Kind of test: Assay Method 2: rat FAAH-1 assay, 3H-anandamide hydrolysis in homogenate of SK-N-MC cells transfected with rat FAAH.

Take `CN(C)c1ccc(-c2cc(NC[C@H](O)c3ccccc3)ncn2)cn1` [Example 78, (1R)-2-({6-[6-(Dimethylamino)pyridin-3-yl]pyrimidin-4-yl}amino)-1-phenylethanol]: the figures for the IC50 against FAAH and against Rat FAAH-1 were 633 nM and more than 10000 nM, respectively.

As to `OC(CNc1cc(-c2ccc(C(F)(F)F)c(Cl)c2)ncn1)c1c(F)cccc1F` (stereo not shown) [Example 211, 2-({6-[3-Chloro-4-(trifluoromethyl)phenyl]pyrimidin-4-yl}amino)-1-(2,6-difluorophenyl)ethanol], the IC50 against FAAH was found to be 56 nM; against Rat FAAH-1, 50 nM.

In the case of `OC(CNc1cc(-c2cc(C(F)(F)F)cc(C(F)(F)F)c2)ncn1)c1ccccc1` (stereo not shown) [Example 239, 2-[6-(3,5-Bis-trifluoromethyl-phenyl)-pyrimidin-4-ylamino]-1-phenyl-ethanol], the half-inhibitory concentration (IC50) against FAAH and at Rat FAAH-1 was more than 10000 nM throughout.

Turning to `OC(CNc1cc(-c2ccc(C(F)(F)F)c(Cl)c2)ncn1)c1ccc2ccccc2c1` (stereo not shown) [Example 192, 2-({6-[3-Chloro-4-(trifluoromethyl)phenyl]pyrimidin-4-yl}amino)-1-naphthalen-2-ylethanol], the figures for the IC50 at FAAH and against Rat FAAH-1 were 47 nM and 6 nM, respectively.

As to `CC(C)(C)c1ccc(-c2cc(NCC(O)c3ccccc3)ncn2)cc1` (stereo not shown) [Example 224, 2-({6-[4-(1,1-Dimethylethyl)phenyl]pyrimidin-4-yl}amino)-1-phenylethanol], the IC50 on FAAH was found to be 28 nM; against Rat FAAH-1 it was 538 nM.

For `Cc1nc(NC[C@H](O)c2ccccc2)cc(-c2ccc(Cl)c(Cl)c2)n1` [Example 155, (1R)-2-{[6-(3,4-Dichlorophenyl)-2-methylpyrimidin-4-yl]amino}-1-phenylethanol], the results for the IC50 at FAAH and on Rat FAAH-1 were 60 nM and 270 nM, respectively.

As for `O[C@@H](CNc1cc(-c2ccc(OC(F)(F)F)c(F)c2)ncn1)c1ccc(F)cc1` [Example 174, (1R)-1-(4-Fluorophenyl)-2-({6-[3-fluoro-4-(trifluoromethoxy)phenyl]pyrimidin-4-yl}amino)ethanol trifluoroacetic acid salt], the concentration for half-maximal inhibition (IC50) is 2 nM against FAAH and 5 nM against Rat FAAH-1.

For `OC(CNc1cc(-c2ccc(C(F)(F)F)c(Cl)c2)ncn1)c1cc(-c2ccccc2)no1` (stereo not shown) [Example 207, 2-({6-[3-Chloro-4-(trifluoromethyl)phenyl]pyrimidin-4-yl}amino)-1-(3-phenylisoxazol-5-yl)ethanol], the IC50 against FAAH was determined as 67 nM; on Rat FAAH-1, 111 nM.

With `Cc1ccc(-c2cc(NCC(O)c3ccccc3)ncn2)cc1C` (stereo not shown) [Example 223, 2-{[6-(3,4-Dimethylphenyl)pyrimidin-4-yl]amino}-1-phenylethanol], the IC50 is 144 nM on FAAH and 707 nM on Rat FAAH-1.

Take `O[C@@H](CNc1cc(-c2ccc3c(C(F)(F)C(F)(F)F)noc3c2)ncn1)c1ccc(F)cc1` [Example 176, (1R)-1-(4-fluorophenyl)-2-({6-[3-(pentafluoroethyl)-1,2-benzisoxazol-6-yl]pyrimidin-4-yl}amino)ethanol trifluoroacetic acid salt]: the IC50 against FAAH was 9 nM; against Rat FAAH-1, 10 nM.

In the case of `CSc1nc(NC[C@H](O)c2ccccc2)cc(-c2ccc(C(F)(F)F)c(Cl)c2)n1` [Example 60, (1R)-2-({6-[3-Chloro-4-(trifluoromethyl)phenyl]-2-(methylsulfanyl)pyrimidin-4-yl}amino)-1-phenylethanol trifluoroacetic acid salt], the IC50 against FAAH stood at 6 nM; on Rat FAAH-1, 28 nM.

`CNCCNc1nc(NC[C@H](O)c2ccccc2)cc(-c2ccc(C(F)(F)F)c(Cl)c2)n1` [Example 163, (1R)-2-[(6-[3-Chloro-4-(trifluoromethyl)phenyl]-2-{[2-(methylamino)ethyl]amino}pyrimidin-4-yl)amino]-1-phenylethanol hydrochloride salt]: the half-maximal inhibitory concentration (IC50) against FAAH and against Rat FAAH-1 was 2000 nM throughout.

For `O[C@@H](CNc1cc(-c2ccc3nonc3c2)ncn1)c1ccccc1` [Example 45, (1R)-2-{[6-(2,1,3-Benzoxadiazol-5-yl)pyrimidin-4-yl]amino}-1-Phenylethanol trifluoroacetic acid salt], the values for the IC50 against FAAH and on Rat FAAH-1 were 150 nM and 600 nM, respectively.

In the case of `CCCOc1ccc(-c2cc(NC[C@H](O)c3ccccc3)ncn2)cc1` [Example 44, (1R)-1-Phenyl-2-{[6-(4-propoxyphenyl)pyrimidin-4-yl]amino}ethanol trifluoroacetic acid salt], the IC50 against FAAH amounted to 50 nM; against Rat FAAH-1, 600 nM.

`OC(CNc1cc(-c2ccc(C(F)(F)F)c(Cl)c2)ncn1)c1ccc2c(c1)OCCO2` (stereo not shown) [Example 199, 2-({6-[3-Chloro-4-(trifluoromethyl)phenyl]pyrimidin-4-yl}amino)-1-(2,3-dihydro-1,4-benzodioxin-6-yl)ethanol]: the IC50 against FAAH turned out to be 500 nM; at Rat FAAH-1 it was 120 nM.

For `O[C@@H](CNc1cc(-c2cc3cc(OC(F)(F)F)ccc3s2)ncn1)c1ccccc1` [Example 185, (1R)-1-Phenyl-2-({6-[5-(trifluoromethoxy)-1-benzothiophen-2-yl]pyrimidin-4-yl}amino)ethanol trifluoroacetic acid salt], the IC50 against FAAH came out at 20 nM; against Rat FAAH-1 it was 90 nM.

Regarding `Cn1c(-c2cc(NC[C@H](O)c3ccccc3)ncn2)cc2ccccc21` [Example 55, (1R)-2-{[6-(1-Methyl-1H-indol-2-yl)pyrimidin-4-yl]amino}-1-phenylethanol trifluoroacetic acid salt], the IC50 was 20 nM on FAAH and 1700 nM against Rat FAAH-1.

Turning to `CC(C)c1nc(NC[C@H](O)c2ccccc2)cc(-c2ccc(Cl)c(Cl)c2)n1` [Example 137, (1R)-2-{[6-(3,4-Dichlorophenyl)-2-(1-methylethyl)pyrimidin-4-yl]amino}-1-phenylethanol], the results for the IC50 against FAAH and on Rat FAAH-1 were 920 nM and 5000 nM, respectively.

For `O[C@@H](CNc1cc(-c2csc3ccccc23)ncn1)c1ccccc1` [Example 87, (1R)-2-{[6-(1-Benzothiophen-3-yl)pyrimidin-4-yl]amino}-1-phenylethanol trifluoroacetic acid salt], the half-inhibitory concentration (IC50) was 42 nM at FAAH and 1400 nM on Rat FAAH-1.

Take `CC(O)c1ccc(-c2cc(NC[C@H](O)c3ccccc3)ncn2)cc1F` (stereo partly drawn) [Example 129, (1R)-2-({6-[3-Fluoro-4-(1-hydroxyethyl)phenyl]pyrimidin-4-yl}amino)-1-phenylethanol trifluoroacetic acid salt]: the IC50 is 16 nM on FAAH and 120 nM at Rat FAAH-1.

For the molecule `N#Cc1ccc(-c2cc(NC[C@H](O)c3ccccc3)ncn2)cc1F` [Example 88, 2-Fluoro-4-(6-{[(2R)-2-hydroxy-2-phenylethyl]amino}pyrimidin-4-yl)benzonitrile trifluoroacetic acid salt], the IC50 came out at 65 nM on FAAH and 33 nM against Rat FAAH-1.

Take `OC(CNc1cc(-c2ccc(C(F)(F)F)c(Cl)c2)ncn1)c1cc(-c2ccc(Cl)c(Cl)c2)no1` (stereo not shown) [Example 213, 2-[6-(3-Chloro-4-trifluoromethyl-phenyl)-pyrimidin-4-ylamino]-1-[3-(3,4-dichloro-phenyl)-isoxazol-5-yl]-ethanol]: the values for the IC50 against FAAH and at Rat FAAH-1 were 22 nM and 400 nM, respectively.

As for `OC(CNc1cc(-c2ccc(OC(F)(F)F)cc2)ncn1)c1ccc(Cl)cc1` (stereo not shown) [Example 109, 1-(4-Chlorophenyl)-2-[(6-{4-[(trifluoromethyl)oxy]phenyl}pyrimidin-4-yl)amino]ethanol], the IC50 came to 150 nM against FAAH and 42 nM against Rat FAAH-1.

With `CCCOc1ccc(-c2cc(NC[C@H](O)c3ccccc3)ncn2)cc1F` [Example 35, (1R)-2-{[6-(3-Fluoro-4-propoxyphenyl)pyrimidin-4-yl]amino}-1-Phenylethanol trifluoroacetic acid salt], the IC50 against FAAH turned out to be 43 nM; against Rat FAAH-1 it was 180 nM.

For the molecule `OC(CNc1cc(-c2ccc(Cl)c(Cl)c2)ncn1)c1ccccc1` (stereo not shown) [Example 8, 2-{[6-(3,4-Dichlorophenyl)pyrimidin-4-yl]amino}-1-phenylethanol], the values for the IC50 against FAAH and on Rat FAAH-1 were 74 nM and 168 nM, respectively.

For the molecule `O[C@@H](CNc1cc(-c2cc(F)c(F)c(F)c2)ncn1)c1ccccc1` [Example 54, (1R)-1-Phenyl-2-{[6-(3,4,5-trifluorophenyl)pyrimidin-4-yl]amino}ethanol trifluoroacetic acid salt], the half-maximal inhibitory concentration (IC50) at FAAH was 277 nM; against Rat FAAH-1, 443 nM.

In general, IC50 refers to the midpoint of a concentration-inhibition curve. A lower IC50 goes with greater potency.
